Laboratory results from US9211310B2, “Use of a Chinese medicine composition in preparing medicaments for treating secondary prevention of myocardial infarction” (TASLY PHARMACEUTICAL GROUP CO., LTD, priority 2010, dated 2015).

Test system: patients after acute myocardial infarction
Experiment: Life quality, Seattle Angina Questionnaire (SAQ), same clinical trial
Format: in vivo, human
Settings: Follow-up
Excerpt: 3508 patients who were in accordance with the diagnostic standards of AMI for 28 days to 2 years and differentiated as Qi deficiency and blood stagnation syndrome by TCM were studied. 0.5 g Chinese medicine composition prepared by the method of EXAMPLE 1 (Coded as QSYQ) was administrated half an hour after meal, 3 times per day.
There were 19 questions in the Seattle angina questionnaire (SAQ), including 5 parts: physical limitation (PL), anginal stability (AS), anginal frequency (AF), treatment satisfaction (TS) and disease perception (DP). After being given necessary explanation by doctors, the questions were answered independently by patients.
They included the overall survival time, angina pectoris score, TCM symptom score and life quality score, where angina pectoris score, TCM symptom score and life quality score were evaluated at randomization, in 1st, 3rd, 6th, 9th, 12th month after treatment and 18th month after follow-up.
All evaluation results of SAQ were described during the period of observation, and Wilcoxon rank sum test was used for inter-group comparison.
The evaluation results in the SAQ were depicted in different observations, and inter-group comparison was tested by Wilcoxon Rank-sum test.

[1] = FAS, second line headed Not limited (r60)

CC(=O)Oc1ccccc1C(=O)O [Control group, aspirine]
SAQ 7th question, Mostly satisfied: number of patients (FAS): 908 | SAQ 7th question, Partly satisfied: % of patients (FAS): (6.68%) | SAQ 7th question, Partly satisfied: number of patients (FAS): 97 | SAQ Question 1-1 Mildly limited, number of patients (FAS): 6 | SAQ Question 1-1 Mildly limited, percent of patients (FAS): (0.42%) | SAQ Question 1-1 Moderately limited, number of patients (FAS): 1 | SAQ Question 1-1 Moderately limited, percent of patients (FAS): (0.07%) | SAQ Question 1-1 Not limited, number of patients (FAS): 1386 | SAQ Question 1-1 Not limited, percent of patients (FAS): (95.98%) | SAQ Question 1-1 Other reasons, number of patients (FAS): 5 | SAQ Question 1-1 Other reasons, percent of patients (FAS): (0.35%) | SAQ Question 1-1 Severely limited, number of patients (FAS): 1 | SAQ Question 1-1 Severely limited, percent of patients (FAS): (0.07%) | SAQ Question 1-1 Slightly limited, number of patients (FAS): 45 | SAQ Question 1-1 Slightly limited, percent of patients (FAS): (3.12%) | SAQ Question 1-2 Mildly limited, number of patients (FAS): 8 | SAQ Question 1-2 Mildly limited, percent of patients (FAS): (0.55%) | SAQ Question 1-2 Moderately limited, number of patients (FAS): 0 | SAQ Question 1-2 Moderately limited, percent of patients (FAS): (0.00%) | SAQ Question 1-2 Not limited, number of patients (FAS): 1370 | SAQ Question 1-2 Not limited, percent of patients (FAS): (94.88%) | SAQ Question 1-2 Severely limited, number of patients (FAS): 2 | SAQ Question 1-2 Severely limited, percent of patients (FAS): (0.14%) | SAQ Question 1-2 Slightly limited, number of patients (FAS): 57 | SAQ Question 1-2 Slightly limited, percent of patients (FAS): (3.95%) | SAQ Question 1-6: Mildly limited, patients (%) (FAS): (11.47%) | SAQ Question 1-6: Moderately limited, patients (%) (FAS): (9.24%) | SAQ Question 1-6: Not limited, patients (%) (FAS): (42.11%) | SAQ Question 1-6: Other reasons, patients (%) (FAS): (0.83%) | SAQ Question 1-6: Severely limited, patients (%) (FAS): (2.22%) | SAQ Question 1-6: Slightly limited, patients (%) (FAS): (34.12%) | SAQ Question 1-7: Mildly limited, patients (%) (FAS): (22.01%) | SAQ Question 1-7: Moderately limited, patients (%) (FAS): (6.75%) | SAQ Question 1-7: Not limited, patients (%) (FAS): (22.08%) | SAQ Question 1-7: Other reasons, patients (%) (FAS): (2.53%) | SAQ Question 1-7: Severely limited, patients (%) (FAS): (11.67%) | SAQ Question 1-7: Slightly limited, patients (%) (FAS): (34.95%) | SAQ Question 1-8: Mildly limited, patients (%) (FAS): (25.02%) | SAQ Question 1-8: Moderately limited, patients (%) (FAS): (11.91%) | SAQ Question 1-8: Not limited, patients (%) (FAS): (15.02%) | SAQ Question 1-8: Other reasons, patients (%) (FAS): (3.19%) | SAQ Question 1-8: Severely limited, patients (%) (FAS): (14.74%) | SAQ Question 1-8: Slightly limited, patients (%) (FAS): (30.12%) | SAQ Question 1-2 Not limited, number of patients [1]: 7 | SAQ Question 1-2 Not limited, percent of patients [1]: (0.48%) | SAQ 2nd question: Clearly increased, % of cases (FAS): (0.21%) | SAQ 2nd question: Clearly increased, cases (FAS): 3 | SAQ 2nd question: Clearly reduced, % of cases (FAS): (27.82%) | SAQ 2nd question: Clearly reduced, cases (FAS): 402 | SAQ 2nd question: Same, % of cases (FAS): (39.24%) | SAQ 2nd question: Same, cases (FAS): 567 | SAQ 2nd question: Slightly increased, % of cases (FAS): (7.40%) | SAQ 2nd question: Slightly increased, cases (FAS): 107 | SAQ 2nd question: Slightly reduced, % of cases (FAS): (25.33%) | SAQ 2nd question: Slightly reduced, cases (FAS): 366 | SAQ 3rd question: 1-2 times per week, % of cases (FAS): (25.33%) | SAQ 3rd question: 1-2 times per week, cases (FAS): 366 | SAQ 3rd question: 1-3 times per day, % of cases (FAS): (7.40%) | SAQ 3rd question: 1-3 times per day, cases (FAS): 107 | SAQ 3rd question: <1 time per week, % of cases (FAS): (27.82%) | SAQ 3rd question: <1 time per week, cases (FAS): 402 | SAQ 3rd question: No onset, % of cases (FAS): (0.00%) | SAQ 3rd question: No onset, cases (FAS): 0 | SAQ 3rd question: ≧3 times per week, % of cases (FAS): (39.24%) | SAQ 3rd question: ≧3 times per week, cases (FAS): 567 | SAQ 3rd question: ≧4 times per day, % of cases (FAS): (0.21%) | SAQ 3rd question: ≧4 times per day, cases (FAS): 3 | SAQ Question 1-3: Mildly limited, number of patients (FAS): 30 | SAQ Question 1-3: Mildly limited, percent of patients (FAS): (2.08%) | SAQ Question 1-3: Moderately limited, number of patients (FAS): 6 | SAQ Question 1-3: Moderately limited, percent of patients (FAS): (0.42%) | SAQ Question 1-3: Not limited, number of patients (FAS): 1206 | SAQ Question 1-3: Not limited, percent of patients (FAS): (83.58%) | SAQ Question 1-3: Other reasons, number of patients (FAS): 9 | SAQ Question 1-3: Other reasons, percent of patients (FAS): (0.62%) | SAQ Question 1-3: Severely limited, number of patients (FAS): 2 | SAQ Question 1-3: Severely limited, percent of patients (FAS): (0.14%) | SAQ Question 1-3: Slightly limited, number of patients (FAS): 190 | SAQ Question 1-3: Slightly limited, percent of patients (FAS): (13.17%) | SAQ Question 1-4: Mildly limited, number of patients (FAS): 177 | SAQ Question 1-4: Mildly limited, percent of patients (FAS): (12.28%) | SAQ Question 1-4: Moderately limited, number of patients (FAS): 38 | SAQ Question 1-4: Moderately limited, percent of patients (FAS): (2.64%) | SAQ Question 1-4: Not limited, number of patients (FAS): 775 | SAQ Question 1-4: Not limited, percent of patients (FAS): (53.78%) | SAQ Question 1-4: Other reasons, number of patients (FAS): 10 | SAQ Question 1-4: Other reasons, percent of patients (FAS): (0.69%) | SAQ Question 1-4: Severely limited, number of patients (FAS): 5 | SAQ Question 1-4: Severely limited, percent of patients (FAS): (0.35%) | SAQ Question 1-4: Slightly limited, number of patients (FAS): 436 | SAQ Question 1-4: Slightly limited, percent of patients (FAS): (30.26%) | SAQ Question 1-5: Mildly limited, number of patients (FAS): 189 | SAQ Question 1-5: Mildly limited, percent of patients (FAS): (13.12%) | SAQ Question 1-5: Moderately limited, number of patients (FAS): 57 | SAQ Question 1-5: Moderately limited, percent of patients (FAS): (3.96%) | SAQ Question 1-5: Not limited, number of patients (FAS): 783 | SAQ Question 1-5: Not limited, percent of patients (FAS): (54.34%) | SAQ Question 1-5: Other reasons, number of patients (FAS): 8 | SAQ Question 1-5: Other reasons, percent of patients (FAS): (0.56%) | SAQ Question 1-5: Severely limited, number of patients (FAS): 9 | SAQ Question 1-5: Severely limited, percent of patients (FAS): (0.62%) | SAQ Question 1-5: Slightly limited, number of patients (FAS): 395 | SAQ Question 1-5: Slightly limited, percent of patients (FAS): (27.41%) | SAQ Question 1-9: Mildly limited, % of cases (FAS): (20.40%) | SAQ Question 1-9: Mildly limited, cases (FAS): 285 | SAQ Question 1-9: Moderately limited, % of cases (FAS): (21.19%) | SAQ Question 1-9: Moderately limited, cases (FAS): 296 | SAQ Question 1-9: Not limited, % of cases (FAS): (6.08%) | SAQ Question 1-9: Not limited, cases (FAS): 85 | SAQ Question 1-9: Other reasons, % of cases (FAS): (4.65%) | SAQ Question 1-9: Other reasons, cases (FAS): 65 | SAQ Question 1-9: Severely-limited, % of cases (FAS): (27.13%) | SAQ Question 1-9: Severely-limited, cases (FAS): 379 | SAQ Question 1-9: Slightly limited, % of cases (FAS): (20.54%) | SAQ Question 1-9: Slightly limited, cases (FAS): 287 | SAQ 2nd question: Clearly increased, % of cases (PP): (0.21%) | SAQ 2nd question: Clearly increased, cases (PP): 3 | SAQ 2nd question: Clearly reduced, % of cases (PP): (27.66%) | SAQ 2nd question: Clearly reduced, cases (PP): 390 | SAQ 2nd question: Same, % of cases (PP): (39.15%) | SAQ 2nd question: Same, cases (PP): 552 | SAQ 2nd question: Slightly increased, % of cases (PP): (7.38%) | SAQ 2nd question: Slightly increased, cases (PP): 104 | SAQ 2nd question: Slightly reduced, % of cases (PP): (25.60%) | SAQ 2nd question: Slightly reduced, cases (PP): 361 | SAQ 3rd question: 1-2 times per week, % of cases (PP): (25.60%) | SAQ 3rd question: 1-2 times per week, cases (PP): 361 | SAQ 3rd question: 1-3 times per day, % of cases (PP): (7.38%) | SAQ 3rd question: 1-3 times per day, cases (PP): 104 | SAQ 3rd question: <1 time per week, % of cases (PP): (27.66%) | SAQ 3rd question: <1 time per week, cases (PP): 390 | SAQ 3rd question: No onset, % of cases (PP): (0.00%) | SAQ 3rd question: No onset, cases (PP): 0 | SAQ 3rd question: ≧3 times per week, % of cases (PP): (39.15%) | SAQ 3rd question: ≧3 times per week, cases (PP): 552 | SAQ 3rd question: ≧4 times per day, % of cases (PP): (0.21%) | SAQ 3rd question: ≧4 times per day, cases (PP): 3 | SAQ Question 1-3: Mildly limited, number of patients (PP): 30 | SAQ Question 1-3: Mildly limited, percent of patients (PP): (2.13%) | SAQ Question 1-3: Moderately limited, number of patients (PP): 6 | SAQ Question 1-3: Moderately limited, percent of patients (PP): (0.43%) | SAQ Question 1-3: Not limited, number of patients (PP): 1179 | SAQ Question 1-3: Not limited, percent of patients (PP): (83.74%) | SAQ Question 1-3: Other reasons, number of patients (PP): 9 | SAQ Question 1-3: Other reasons, percent of patients (PP): (0.64%) | SAQ Question 1-3: Severely limited, number of patients (PP): 2 | SAQ Question 1-3: Severely limited, percent of patients (PP): (0.14%) | SAQ Question 1-3: Slightly limited, number of patients (PP): 182 | SAQ Question 1-3: Slightly limited, percent of patients (PP): (12.93%) | SAQ Question 1-4: Mildly limited, number of patients (PP): 172 | SAQ Question 1-4: Mildly limited, percent of patients (PP): (12.23%) | SAQ Question 1-4: Moderately limited, number of patients (PP): 37 | SAQ Question 1-4: Moderately limited, percent of patients (PP): (2.63%) | SAQ Question 1-4: Not limited, number of patients (PP): 754
